Experimental data published in the supplement of paper PMC10290057.
Where a name gives a salt, the structure may show the parent alone.

Legend:
HCT116 [1] = experiment: AC50 cell viability (CellTiter-Glo); higher = less potent; conditions: 48 h
HCT116 [2] = experiment: efficacy (fitted maximal change in viability relative to DMSO control); higher = less cytotoxic (negative = loss of viability); conditions: 48 h
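Throughout, for AC50 cell viability (CellTiter-Glo): HCT116 colorectal carcinoma cells screened at five concentrations per compound, luminescent viability scaled between DMSO wells and empty wells on each plate, curves fitted per compound.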
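Throughout, for efficacy (fitted maximal change in viability relative to DMSO control): Luminescence-based viability readout, five doses per compound, normalized against on-plate DMSO and empty-well controls, followed by dose-response curve fitting for every drug.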

| SMILES | AC50 cell viability (HCT116 [1]) | efficacy (HCT116 [2]) |
| --- | --- | --- |
| COc1cc2nc(N3CCCN(C)CC3)nc(NC3CCN(Cc4ccccc4)CC3)c2cc1OC | 6610 nM | -95.2% |
| CCNCCc1ccc(CN(CC)c2cc(OC)ccc2[C@@H]2CCc3cc(O)ccc3C2)cc1 [Elacestrant] | 7420 nM | -96.5% |
| CCOc1cc(C(=O)N2CCC(N3CCN(C)CC3)CC2)ccc1Nc1ncc2c(n1)N(C1CCCC1)c1ccccc1C(=O)N2C [XMD17-109] | 7420 nM | -104% |
| C=CCNc1c(O)cc2c(O)c1C[C@@H](C)C[C@H](OC)[C@H](O)[C@@H](C)/C=C(/C)[C@H](OC(N)=O)[C@@H](OC)/C=C\C=C(\C)C(=O)N2 [Retaspimycin Hydrochloride] | 372 nM | -66.4% |
| Nc1cc(C(F)(F)F)c(-c2cc(N3CCOCC3)nc(N3CCOCC3)n2)cn1 [BKM-120] | 1660 nM | -71.8% |
| CN1CCN(Cc2ccc(NC(=O)Nc3ccc(Oc4cc(NC(=O)C5CC5)ncn4)cc3)cc2C(F)(F)F)CC1 [WS-3] | 93.4 nM | -73.9% |
| CC\1=C(C(=O)N(\C=C1)C2=CC=C(C=C2)C3=NC=CO3)/C4=CC5=CN=C(N)N=C5C=C4 [AMG-25] | 1660 nM | -47.6% |
| [O-][n+]1cccc(-c2nc3c(Cl)cccc3cc2[C@@H](Nc2ncnc3cccnc23)C(F)(F)F)c1 [Seletalisib] | 18600 nM | -49.3% |
| Cc1ccc(NC(=O)c2ccc(CN3CCN(C)CC3)cc2)cc1Nc1nc(-c2cccnc2)cs1 [Masitinib] | 18600 nM | -99.1% |
| CC(C)C1NC(=O)C(NC(=O)C2=C3\N=C\4/C(=C(C)\C(=O)\C(=C4C(=O)NC5C(C)OC(=O)C(C(C)C)N(C)C(=O)CN(C)C(=O)C6CCCN6C(=O)C(NC5=O)C(C)C)N)OC3=C(C)C=C2)C(C)OC(=O)C(C(C)C)N(C)C(=O)CN(C)C(=O)C7CCCN7C1=O (stereo not drawn) [Actinomycin D] | 1.44 nM | -73.8% |
| C=CC(=O)Nc1cccc(Oc2nc(Nc3ccc(N4CCN(C)CC4)cc3OC)ncc2Cl)c1 [WZ-4002] | 11800 nM | -96.5% |
| NC/1=N/C(=O)N(/C=N1)[C@@H]2O[C@H](CO)[C@@H](O)[C@H]2O [5-Azacitidine] | 5900 nM | -82.6% |
| COC(=O)C[C@](O)(CCCC(C)(C)O)C(=O)O[C@@H]1C(OC)=CC23CCCN2CCc2cc4c(cc2[C@H]13)OCO4 (stereo partly drawn) [Omacetaxine mepesuccinate] | 23.5 nM | -68.3% |
| CO[C@@H](C(=O)N1Cc2[nH]nc(NC(=O)c3ccc(N4CCN(C)CC4)cc3)c2C1)c1ccccc1 [Danusertib] | 1660 nM | -71.4% |
| CO[C@H]1CCC(O[C@H]2C[C@H]([C@]3(C)CC[C@]4(C[C@H](O)[C@@H](C)[C@@H]([C@@H](C)/C=C(\C)C(=O)[C@H](C)C[C@H](C)C(=O)[O-])O4)O3)O[C@]3(O[C@@H]([C@H]4O[C@@](O)(CO)[C@H](C)C[C@@H]4C)C[C@@H]3C)[C@@H]2C)O[C@@H]1C (stereo partly drawn) [Nanchangmycin] | 2950 nM | -101% |
| Cc1c(NC(=O)OC[C@@H]2COCCN2)cn2ncnc(Nc3ccc4c(cnn4Cc4cccc(F)c4)c3)c12 [AC-480] | 20900 nM | -82.6% |
| Cc1ccc(C(C)(O)c2nc3ccccc3s2)c(C)c1 (stereo not drawn) | 16600 nM | -43.4% |
| C=C1/C(=C\C=C2/CCC[C@]3(C)[C@@H]([C@H](C)/C=C/[C@H](C)C(C)C)CC[C@@H]23)C[C@@H](O)C[C@@H]1O [Doxercalciferol] | 23500 nM | -85.4% |
| COc1ccc(N(C)c2nc(C)nc3ccccc23)cc1 [Azixa] | 3.72 nM | -64.3% |
| Cc1oncc1C(=O)Nc1ccc(C(F)(F)F)cc1 [Leflunomide] | 3320 nM | -31.2% |
| S=C1N\C=N/C2=C1[NH]C=N2 [6-mercaptopurine] | 1660 nM | -101% |
| CC(C)(C)OC(=O)CN(Cc1ccc(Cl)cc1)Cc1ccc([N+](=O)[O-])s1 [GSK-4112] | 20900 nM | -40.6% |
| CC(C)[C@@H](C[S+](=O)([O-])C(C)C)N1C(=O)[C@@](C)(CC(=O)O)C[C@H](c2cccc(Cl)c2)[C@H]1c1ccc(Cl)cc1 [AMG-232] | 1480 nM | -84.7% |
| Cn1cnc2c(F)c(Nc3ccc(Br)cc3Cl)c(C(=O)NOCCO)cc21 [Selumetinib] | 525 nM | -77% |
| CCc1nc(N)nc(N)c1-c1ccc(Cl)cc1 [Pyrimethamine] | 3320 nM | -88.5% |
| CNC(=O)c1ccccc1Nc1nc(Nc2ccc(N3CCOCC3)cc2OC)ncc1Cl [NVP-TAE226] | 833 nM | -77.8% |
| CN(C)CCN1C(=O)c2cccc3cc(N)cc(c23)C1=O [Amonafide] | 4170 nM | -72.8% |
| Cc1ccc(NC(=O)NCc2ccc3c(c2)CN(C2CCC(=O)NC2=O)C3=O)cc1Cl (stereo not drawn) [CC-885] | 93.4 nM | -42.4% |
| CC(=O)c1cnc2ccc(-c3cc(Cl)c(O)c(Cl)c3)nc2c1N[C@H]1CC[C@H](CN(C)C)CC1 [OTS-167] | 53.9 nM | -70.5% |
